In PubChem BioAssay (NCI):
“And” between values parts separate entries of the source, which are not always exact repeats. Equal values may be shown once.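 Results reflect a 48-hour exposure of cells in 96-well plates to compound at five concentrations. GI50 is the concentration that inhibits growth by half. TGI is the concentration that stops growth completely.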

How the values were obtained:
Assay in all cases: DTP human tumour cell line panel, 48 h
[1] = test system: A549 NSCLC
[2] = test system: HCT-116 colon
[3] = test system: HCT-15 colon
[4] = test system: HL-60(TB) leukemia
[5] = test system: IGROV1 ovarian
[6] = test system: OVCAR-4 ovarian
[7] = test system: U251 CNS
[8] = test system: UACC-62 melanoma
[9] = test system: HCC-2998 colon
[10] = test system: MALME-3M melanoma

SMILES	GI50 [1]	TGI [1] [µM]	GI50 [2] [µM]	TGI [2]	GI50 [3] [µM]	TGI [3] [µM]	GI50 [4] [µM]	TGI [4]	GI50 [5] [µM]	TGI [5] [µM]	GI50 [6] [µM]	TGI [6] [µM]	GI50 [7] [µM]	TGI [7]	GI50 [8] [µM]	TGI [8] [µM]	TGI [9] [µM]	TGI [10]	GI50 [9] [µM]	GI50 [10] [µM]
O=C(NC1CCCCC1)NS(=O)(=O)c1ccc(-n2nc3c(c2-c2ccc(Cl)cc2)Cc2ccccc2-3)cc1	16.6 µM	34.6	4.18	> 100 µM	7.79	31.2	4.28	14.6 µM	18.6	35.8	28.8	> 100	11.7	29.7 µM	10.9	24	–	–	–	–
NCCCNCCSSC/C=C\CSSCCNCCCN	> 100 µM and 46.8 µM	> 100	–	–	–	> 100	–	46.4 µM and 39.1 µM	–	> 100	–	> 100	–	> 100 µM	–	> 100	> 100	> 100 µM	–	–
COC1=CC(c2ccc[nH]2)=N/C1=C\c1[nH]c(C)c(C(C)=O)c1C	2.02 µM	> 44.8	0.0576	> 100 µM	0.21	2.15	0.168	–	0.696	> 100	3.51	> 100	1.19	> 57.2 µM	–	–	> 100	–	2.08	–
COc1cccc(Cn2c(-c3nonc3NC(C)=O)nc3ccccc32)c1	5.81 µM	> 100	4.94	> 100 µM	3.59	> 100	–	–	7.98	> 100	15.6	> 100	3.94	35.5 µM	3.37	> 100	> 100	43.8 µM	5.83	3.31
COc1cc(Nc2nc3cc(C(F)(F)F)ccc3nc2-c2ccccc2)cc(OC)c1OC	–	> 100	–	–	–	> 100	–	> 100 µM	–	> 100	–	51.3	–	> 100 µM	–	> 100	> 100	> 100 µM	–	–
CC1=NC(C(C)C)C(=O)O1 (configuration not stated)	–	–	–	34.1 µM	–	> 100	–	> 100 µM	–	> 100	–	> 100	–	> 100 µM	–	> 100	> 100	> 100 µM	–	–
COC(=O)C(Cc1ccccc1)NC(=O)Cn1ccnc1[N+](=O)[O-] (configuration not stated)	–	> 100	–	–	–	> 100	–	> 100 µM	–	> 100	–	> 100	–	> 100 µM	–	> 100	–	> 100 µM	–	–
O=C(O)c1ccccc1-c1ccccc1C(=O)Nc1ccc2c(c1)[nH]c(=O)c1ccccc12	–	> 100	–	> 100 µM	–	> 100	–	> 100 µM	–	> 100	–	> 100	–	> 100 µM	–	> 100	–	> 100 µM	–	–
N#CCCSC(=S)C1CCCC1=N (configuration not stated)	–	> 100	–	> 100 µM	–	> 100	–	> 100 µM	–	> 100	–	> 100	–	> 100 µM	–	> 100	–	> 100 µM	–	–
COC1OC(COS(=O)(=O)c2ccc(C)cc2)C(O)C(OS(=O)(=O)c2ccc(C)cc2)C1OS(=O)(=O)c1ccc(C)cc1 (configuration not stated)	–	> 100	–	> 100 µM	–	> 100	–	> 100 µM	–	> 100	–	> 100	–	> 100 µM	–	–	> 100	> 100 µM	–	–
Nc1ccc(-c2nc3ccccc3o2)cc1S	14.3 µM	41.5	15.1	28.3 µM	16.5	30.3	14.5	42 µM	19.7	> 100	7.58	26	10.8	22.7 µM	13.2	26	32.2	–	14.4	–
COC1=C2C[C@@H](C)C[C@@H](OC)[C@@H](O)[C@H](C)/C=C(\C)[C@@H](OC(N)=O)[C@H](OC)/C=C\C=C(/C)C(=O)NC(=CC1=O)C2=O	–	–	–	3.95 µM and 5.44 µM and 1.88 µM	–	–	–	–	–	–	–	–	–	6.51 µM and 19.4 µM and 4.2 µM	–	–	–	8.13 µM and 3.44 µM and 1.13 µM	–	–
CCC(c1ccc2cc(O)ccc2c1)C(C)(C)C(=O)O (configuration not stated)	–	> 100	–	> 100 µM	–	> 100	–	–	–	> 100	–	> 100	–	> 100 µM	–	> 100	> 100	> 100 µM	–	–
Oc1ccc(-c2cn3cc(Cl)sc3n2)cc1	30.8 µM	> 100	–	–	> 100	> 100	–	–	67.7	> 100	–	–	> 100	> 100 µM	5.36	41.6	–	–	–	–
COc1ccc(-c2cc(-c3cc(C)ccc3O)[nH]c(=O)n2)cc1	–	> 100	–	> 100 µM	–	–	–	> 100 µM	–	> 100	–	> 100	–	> 100 µM	–	> 100	> 100	> 100 µM	–	–
O=C1CC[C@H](c2ccc(O)c3c2C(=O)[C@@H]2O[C@@H]2C3=O)c2cccc(O)c21	16.4 µM	40.9	1.97	3.89 µM	–	–	1.93	5.87 µM	–	–	3.51	13.9	11.6	25.2 µM	1.75	3.73	4.29	6.37 µM	2.12	2.31
CC1=CC(=O)c2c(C=O)c(O)c(O)c(C(C)C)c2C1=O	–	–	–	38.5 µM	–	> 100	–	> 79.5 µM	–	63.9	–	23.8	–	47.4 µM	–	56.4	> 94.5	68.2 µM	–	–
O=C(CN1C(=O)S/C(=C\C(Cl)=C\c2ccccc2)C1=O)NCCc1ccc(O)cc1	3.1 µM	> 100	1.42	3.1 µM	1.52	4.56	–	–	1.76	3.9	2.61	11.9	2	5.16 µM	1.7	3.96	3.33	5.96 µM	1.85	2.03
NC(=O)NC1=NC(Cc2ccccc2)C(=O)N1Cc1ccccc1 (configuration not stated)	–	> 100	–	> 100 µM	–	> 100	–	> 100 µM	–	> 100	–	> 100	–	> 100 µM	–	> 100	> 100	–	–	–
O=C1NC(c2c(Cl)cccc2Cl)Nc2ccccc21 (configuration not stated)	–	> 100	–	> 100 µM	–	> 100	–	46.9 µM	–	> 100	–	> 100	–	> 100 µM	–	> 100	–	88.7 µM	–	–
